Drawing on patent publication US9815846B2 (Merck Sharp & Dohme Corp., priority 2014, dated 2017), this text covers IC50 for ten molecules.

The target in the experiment is human TrkA receptor (Homo sapiens (Human), UniProt P04629). Description: DiscoverX PathHunter TrkA functional assay (NGF-stimulated U2OS cells). Format: cell-based. To be noted: U2OS cells expressing human TrkA-PK, Shc1-EA and p75NTR; compound 1 h, then NGF at ~80% of maximal response for 3 h; luminescence.
human TrkA receptor, sequence (P04629 33-796): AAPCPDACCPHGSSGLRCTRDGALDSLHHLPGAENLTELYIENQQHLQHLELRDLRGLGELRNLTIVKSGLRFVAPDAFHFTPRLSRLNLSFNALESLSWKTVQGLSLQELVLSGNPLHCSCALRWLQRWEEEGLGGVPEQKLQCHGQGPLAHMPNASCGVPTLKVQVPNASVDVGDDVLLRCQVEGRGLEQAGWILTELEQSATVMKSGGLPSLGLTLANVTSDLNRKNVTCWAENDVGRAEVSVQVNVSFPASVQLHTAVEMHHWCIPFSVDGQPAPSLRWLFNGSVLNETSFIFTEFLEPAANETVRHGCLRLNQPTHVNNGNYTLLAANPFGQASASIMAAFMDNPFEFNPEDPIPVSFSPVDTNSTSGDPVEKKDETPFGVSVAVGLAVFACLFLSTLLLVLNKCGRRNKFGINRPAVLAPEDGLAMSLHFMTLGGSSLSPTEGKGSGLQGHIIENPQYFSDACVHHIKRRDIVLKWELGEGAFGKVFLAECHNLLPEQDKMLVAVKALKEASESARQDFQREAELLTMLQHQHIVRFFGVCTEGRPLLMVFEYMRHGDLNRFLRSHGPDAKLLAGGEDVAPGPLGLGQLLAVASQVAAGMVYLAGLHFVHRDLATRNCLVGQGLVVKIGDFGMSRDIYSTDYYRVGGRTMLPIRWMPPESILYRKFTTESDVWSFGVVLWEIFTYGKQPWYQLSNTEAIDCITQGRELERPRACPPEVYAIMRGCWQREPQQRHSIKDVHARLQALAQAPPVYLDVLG
`Cn1ccc(-c2cc(C(=O)Nc3ccc(CNC(=O)C(O)CO)nc3-c3ccccc3)c(F)cc2C(F)(F)F)n1` (single isomer, unassigned) [Example 61, (S or R)-N-(6-((2,3-dihydroxypropanamido)methyl)-2-phenylpyridin-3-yl)-2-fluoro-5-(1-methyl-1H-pyrazol-3-yl)-4-(trifluoromethyl)benzamide]: the half-maximal inhibitory concentration (IC50) was found to be 0.64 nM.

`Cn1ccc(-c2cc(C(=O)Nc3ccc(CNC(=O)C(O)CO)nc3-c3ccccc3)c(F)cc2C(F)(F)F)n1` (single isomer, unassigned) [Example 62, (S or R)-N-(6-((2,3-dihydroxypropanamido)methyl)-2-phenylpyridin-3-yl)-2-fluoro-5-(1-methyl-1H-pyrazol-3-yl)-4-(trifluoromethyl)benzamide]: half-maximal inhibition (IC50) required 0.79 nM.

`CN1CCOC(C(=O)NCc2ccc(NC(=O)c3cc(-c4ccn(C)n4)c(C(F)(F)F)cc3F)c(-c3ccccc3)n2)C1` (single isomer, unassigned) [Example 63, (S or R)-N-((5-(2-fluoro-5-(1-methyl-1H-pyrazol-3-yl)-4-(trifluoromethyl)benzamido)-6-phenylpyridin-2-yl)methyl)-4-methylmorpholine-2-carboxamide]: 1.8 nM corresponded to half-maximal inhibition (IC50).

The molecule `Cn1ccc(-c2cc(C(=O)Nc3cnc(CNC(=O)C(C)(N)CO)nc3-c3ccccc3)c(F)cc2C(F)(F)F)n1` (single isomer, unassigned) [Example 66, (S or R)-N-(2-((2-amino-3-hydroxy-2-methylpropanamido)methyl)-4-phenylpyrimidin-5-yl)-2-fluoro-5-(1-methyl-1H-pyrazol-3-yl)-4-(trifluoromethyl)benzamide] came in with a concentration for half-maximal inhibition (IC50) of 1.2 nM.

Regarding `Cn1ccc(-c2cc(C(=O)Nc3cc(C4CCC(=O)N4)cnc3-c3ccccc3)c(F)cc2C(F)(F)F)n1` (single isomer, unassigned) [Example 181, (R or S)-2-Fluoro-5-(1-methyl-1H-pyrazol-3-yl)-N-(5-(5-oxopyrrolidin-2-yl)-2-phenylpyridin-3-yl)-4-(trifluoromethyl)benzamide], 3.5 nM corresponded to half-maximal inhibition (IC50).

`Cn1ccc(-c2cc(C(=O)Nc3ccc(C4CCNC4=O)nc3-c3ccccc3)ccc2C(F)(F)F)n1` (single isomer, unassigned) [Example 186, (R or S)-3-(1-Methyl-1H-pyrazol-3-yl)-N-(6-(2-oxopyrrolidin-3-yl)-2-phenylpyridin-3-yl)-4-(trifluoromethyl)benzamide] came in with a concentration for half-maximal inhibition (IC50) of 5 nM.

`Cn1ccc(-c2cc(C(=O)Nc3cnc(CC4NC(=O)NC4=O)nc3-c3ccccc3)ccc2C(F)(F)F)n1` (single isomer, unassigned) [Example 190, (R or S)—N-(2-(2,5-Dioxoimidazolidin-4-yl)methyl)-4-phenylpyrimidin-5-yl)-3-(1-methyl-1H-pyrazol-3-yl)-4-(trifluoromethyl)benzamide] gave an IC50 of 1.8 nM.

Take `Cn1ccc(-c2cc(C(=O)Nc3cnc(CC4CCNC4=O)nc3-c3ccccc3)c(F)cc2C(F)(F)F)n1` (single isomer, unassigned) [Example 191, (R or S)-2-Fluoro-5-(1-methyl-1H-pyrazol-3-yl)-N-(2-(2-oxopyrrolidin-3-yl)methyl)-4-phenylpyrimidin-5-yl)-4-(trifluoromethyl)benzamide]: the IC50 is 4.5 nM.

Take `Cn1ccc(-c2cc(C(=O)Nc3ccc(C(O)CO)nc3-c3ccccc3)c(F)cc2C(F)(F)F)n1` (single isomer, unassigned) [Example 192, (R or S)—N-(6-(1,2-Dihydroxyethyl)-2-phenylpyridin-3-yl)-2-fluoro-5-(1-methyl-1H-pyrazol-3-yl)-4-(trifluoromethyl)benzamide]: half-maximal inhibition (IC50) was put at 2.3 nM.

The molecule `Cn1ccc(-c2cc(C(=O)Nc3ccc(C4COC(=O)N4)nc3-c3ccccc3)c(F)cc2C(F)(F)F)n1` (single isomer, unassigned) [Example 196, (R or S)-2-Fluoro-5-(1-methyl-1H-pyrazol-3-yl)-N-(6-(2-oxooxazolidin-4-yl)-2-phenylpyridin-3-yl)-4-(trifluoromethyl)benzamide] had a half-inhibitory concentration (IC50) of 0.19 nM.
